The target of one experiment is T1, human V2 receptor (Homo sapiens, UniProt P30518).
T1 construct: expressed in transfected cells; host or cells: CHO K1 (ATCC) expressing firefly luciferase under a CRE-responsive promoter
The experiment in a line: Cellular in vitro assay for determining vasopressin receptor activity, V2 receptor cell line (CRE-luciferase). The format is cell-based. The settings on record: CHO cell line transfected with the human V2 receptor; agonist [Arg8]-vasopressin at EC50 concentration; read-out: IC50 hV2.

For a further experiment, the target named is human V1a receptor (Homo sapiens, UniProt P37288). The experiment in a line: Cellular in vitro assay for determining vasopressin receptor activity, V1a receptor cell line (photoprotein luminescence). The format is cell-based. The settings on record: for IC50: CHO cell line transfected with the human V1a receptor, agonist [Arg8]-vasopressin at EC50 concentration, read-out: IC50 hV1a; for ratio IC50 hV2/hV1a: selectivity ratio of the cellular IC50 values. In a few lines:
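CHO K1 cells stably expressing human V1a receptor with aequorin photoprotein, loaded overnight with coelenterazine. Compounds preincubated 10 min at various concentrations, then challenged with [Arg^8]-vasopressin at EC50 concentration. Calcium-driven luminescence read immediately; IC50 values derived.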

The source of these data is patent US11331314B2, “Amine substituted triazole derivatives and uses thereof” (Bayer Pharma Aktiengesellschaft, priority 2017, dated 2022).

Chain of human V1a receptor (P37288 whole entry): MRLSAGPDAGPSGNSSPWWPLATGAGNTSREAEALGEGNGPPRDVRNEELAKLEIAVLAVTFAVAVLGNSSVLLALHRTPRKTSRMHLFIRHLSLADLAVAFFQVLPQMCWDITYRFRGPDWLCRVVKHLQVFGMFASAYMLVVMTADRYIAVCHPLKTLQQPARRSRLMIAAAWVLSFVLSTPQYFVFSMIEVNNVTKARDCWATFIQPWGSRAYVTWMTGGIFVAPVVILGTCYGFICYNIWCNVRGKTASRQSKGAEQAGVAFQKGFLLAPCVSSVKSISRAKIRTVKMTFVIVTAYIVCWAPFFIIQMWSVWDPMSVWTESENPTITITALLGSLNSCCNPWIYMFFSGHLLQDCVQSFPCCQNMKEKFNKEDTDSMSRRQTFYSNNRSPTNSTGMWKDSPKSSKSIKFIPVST
T1 sequence (P30518 whole entry): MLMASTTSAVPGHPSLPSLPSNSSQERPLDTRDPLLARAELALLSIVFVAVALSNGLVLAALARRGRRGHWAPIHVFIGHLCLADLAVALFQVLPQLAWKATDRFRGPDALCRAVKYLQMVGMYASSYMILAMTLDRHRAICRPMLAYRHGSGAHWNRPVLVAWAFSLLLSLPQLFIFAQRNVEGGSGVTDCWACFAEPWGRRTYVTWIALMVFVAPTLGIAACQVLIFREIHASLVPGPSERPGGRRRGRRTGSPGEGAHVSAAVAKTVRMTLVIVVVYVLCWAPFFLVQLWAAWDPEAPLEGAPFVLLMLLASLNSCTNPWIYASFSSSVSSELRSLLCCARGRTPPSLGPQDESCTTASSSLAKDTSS

The IC50 is the point on the concentration scale where inhibition reaches its midpoint. For `O=c1n(Cc2nc(N3CCNCC3)n(-c3ccccc3Cl)n2)nc(-c2ccc(Cl)cc2)n1C[C@H](O)C(F)(F)F` [Example 72, 5-(4-Chlorophenyl)-2-{[1-(2-chlorophenyl)-5-(piperazin-1-yl)-1H-1,2,4-triazol-3-yl]methyl}-4-[(2S)-3,3,3-trifluoro-2-hydroxypropyl]-2,4-dihydro-3H-1,2,4-triazol-3-one], the IC50 at human V2 receptor worked out at 17.5 nM. In addition, at human V1a receptor, the IC50 was found to be 0.58 nM and the “ratio IC50 hV2/hV1a” value was determined as 30.2.
The corresponding values for `O=c1n(Cc2nc(N3CCS(=O)(=O)CC3)n(-c3ncccc3Cl)n2)nc(-c2ccc(Cl)cc2)n1C[C@H](O)C(F)(F)F` [Example 96, 5-(4-Chlorophenyl)-2-{[1-(3-chloropyridin-2-yl)-5-(1,1-dioxidothiomorpholin-4-yl)-1H-1,2,4-triazol-3-yl]methyl}-4-[(2S)-3,3,3-trifluoro-2-hydroxypropyl]-2,4-dihydro-3H-1,2,4-triazol-3-one] are 408 nM, 1 nM and 407.5.
As for `CN(CCO)c1nc(Cn2nc(-c3ccc(Cl)cc3)n(C[C@H](O)C(F)(F)F)c2=O)nn1-c1ccccc1Cl` [Example 84, 5-(4-Chlorophenyl)-2-({1-(2-chlorophenyl)-5-[(2-hydroxyethyl)(methyl)amino]-1H-1,2,4-triazol-3-yl}methyl)-4-[(2S)-3,3,3-trifluoro-2-hydroxypropyl]-2,4-dihydro-3H-1,2,4-triazol-3-one], on human V2 receptor, the concentration for half-maximal inhibition (IC50) worked out at 12 nM. For the same compound, on human V1a receptor, the IC50 worked out at 0.83 nM and the “ratio IC50 hV2/hV1a” value is on record as 14.4.
Consider `CC(C)(N)CNc1nc(Cn2nc(-c3ccc(Cl)cc3)n(C[C@H](O)C(F)(F)F)c2=O)nn1CCC(F)(F)F` [Example 111, 2-({5-[(2-Amino-2-methylpropyl)amino]-1-(3,3,3-trifluoropropyl)-1H-1,2,4-triazol-3-yl}methyl)-5-(4-chlorophenyl)-4-[(2S)-3,3,3-trifluoro-2-hydroxypropyl]-2,4-dihydro-3H-1,2,4-triazol-3-one], for which the IC50 on human V2 receptor worked out at 2750 nM; on human V1a receptor, 18.5 nM. On human V1a receptor, the “ratio IC50 hV2/hV1a” value is on record as 148.7.
`O=c1n(Cc2nc(N3CCC(O)(C(F)(F)F)C3)n(-c3ccccc3Cl)n2)nc(-c2ccc(Cl)cc2)n1C[C@H](O)C(F)(F)F` (mixture of isomers) [Example 13, 5-(4-Chlorophenyl)-2-({1-(2-chlorophenyl)-5-[3-hydroxy-3-(trifluoromethyl)pyrrolidin-1-yl]-1H-1,2,4-triazol-3-yl}methyl)-4-[(2S)-3,3,3-trifluoro-2-hydroxypropyl]-2,4-dihydro-3H-1,2,4-triazol-3-one]: the IC50 at human V2 receptor is 2.25 nM. Also, on human V1a receptor, the IC50 is 0.35 nM and the “ratio IC50 hV2/hV1a” value was 6.5.
In the case of `CC1(O)CCN(c2nc(Cn3nc(-c4ccc(Cl)cc4)n(C[C@H](O)C(F)(F)F)c3=O)nn2-c2ccccc2Cl)C1` (single isomer, unassigned) [Example 31], the IC50 on human V2 receptor turned out to be 8.35 nM; on human V1a receptor it was 1.08 nM. Besides, the “ratio IC50 hV2/hV1a” value at human V1a receptor is reported as 7.7.
Turning to `O=C1CN(c2nc(Cn3nc(-c4ccc(Cl)cc4)n(C[C@H](O)C(F)(F)F)c3=O)nn2-c2ccccc2F)CCN1` [Example 89, 4-[3-({3-(4-Chlorophenyl)-5-oxo-4-[(2S)-3,3,3-trifluoro-2-hydroxypropyl]-4,5-dihydro-1H-1,2,4-triazol-1-yl}methyl)-1-(2-fluorophenyl)-1H-1,2,4-triazol-5-yl]piperazin-2-one], the IC50 at human V2 receptor was 80.5 nM. Further, at human V1a receptor, the IC50 was 5.45 nM and the “ratio IC50 hV2/hV1a” value is 14.8.
For the compound `NC(CNc1nc(Cn2nc(-c3ccc(Cl)cc3)n(C[C@H](O)C(F)(F)F)c2=O)nn1-c1ccccc1Cl)C(F)(F)F` (single isomer, unassigned) [Example 7], on human V2 receptor, the IC50 came to 1.12 nM. At human V1a receptor, the IC50 was 0.22 nM and the “ratio IC50 hV2/hV1a” value came to 5.2.
On to `O=c1n(Cc2nc(N3CCCC3)n(-c3cccc(Cl)c3)n2)nc(-c2ccc(Cl)cc2)n1C[C@H](O)C(F)(F)F` [Example 117, 5-(4-Chlorophenyl)-2-{[1-(3-chlorophenyl)-5-(pyrrolidin-1-yl)-1H-1,2,4-triazol-3-yl]methyl}-4-[(2S)-3,3,3-trifluoro-2-hydroxypropyl]-2,4-dihydro-3H-1,2,4-triazol-3-one], for which the IC50 at human V2 receptor came to 19.2 nM. On human V1a receptor, the IC50 was 66.5 nM and the “ratio IC50 hV2/hV1a” value is on record as 0.3.
For `CC(C)(C)CNc1nc(Cn2nc(-c3ccc(Cl)cc3)n(C[C@H](O)C(F)(F)F)c2=O)nn1-c1ccccc1Cl` [Example 1, 5-(4-Chlorophenyl)-2-({1-(2-chlorophenyl)-5-[(2,2-dimethylpropyl)amino]-1H-1,2,4-triazol-3-yl}methyl)-4-[(2S)-3,3,3-trifluoro-2-hydroxypropyl]-2,4-dihydro-3H-1,2,4-triazol-3-one], the IC50 at human V2 receptor was 1.85 nM; on human V1a receptor, 0.75 nM. Further, the “ratio IC50 hV2/hV1a” value at human V1a receptor amounted to 2.5.
On to `NC(=O)[C@H]1CC(F)(F)CN1c1nc(Cn2nc(-c3ccc(Cl)cc3)n(C[C@H](O)C(F)(F)F)c2=O)nn1-c1ccccc1Cl` [Example 10, 1-[1-(2-Chlorophenyl)-3-({3-(4-chlorophenyl)-5-oxo-4-[(2S)-3,3,3-trifluoro-2-hydroxypropyl]-4,5-dihydro-1H-1,2,4-triazol-1-yl}methyl)-1H-1,2,4-triazol-5-yl]-4,4-difluoro-D-prolinamide], for which the IC50 on human V2 receptor stood at 18.2 nM. On human V1a receptor, the IC50 was 0.63 nM and the “ratio IC50 hV2/hV1a” value came to 29.2.
Regarding `O=c1n(Cc2nc(N3CCC4OCCC43)n(-c3ccccc3Cl)n2)nc(-c2ccc(Cl)cc2)n1C[C@H](O)C(F)(F)F` (stereo partly drawn) [Example 38, 5-(4-Chlorophenyl)-2-{[1-(2-chlorophenyl)-5-(hexahydro-4H-furo[3,2-b]pyrrol-4-yl)-1H-1,2,4-triazol-3-yl]methyl}-4-[(2S)-3,3,3-trifluoro-2-hydroxypropyl]-2,4-dihydro-3H-1,2,4-triazol-3-one], the figures for the IC50 at human V2 receptor and at human V1a receptor were 3.55 nM and 0.4 nM, respectively. Further, at human V1a receptor, the “ratio IC50 hV2/hV1a” value was determined as 8.9.
As to `O=c1n(Cc2nc(N3CC(O)(C(F)(F)F)C3)n(-c3ccccc3Cl)n2)nc(-c2ccc(Cl)cc2)n1C[C@H](O)C(F)(F)F` [Example 36, 5-(4-Chlorophenyl)-2-({1-(2-chlorophenyl)-5-[3-hydroxy-3-(trifluoromethyl)azetidin-1-yl]-1H-1,2,4-triazol-3-yl}methyl)-4-[(2S)-3,3,3-trifluoro-2-hydroxypropyl]-2,4-dihydro-3H-1,2,4-triazol-3-one], at human V2 receptor, the IC50 turned out to be 1.75 nM. On human V1a receptor, the IC50 stood at 0.82 nM and the “ratio IC50 hV2/hV1a” value was found to be 2.1.
Turning to `O=C1NCCC1Nc1nc(Cn2nc(-c3ccc(Cl)cc3)n(C[C@H](O)C(F)(F)F)c2=O)nn1-c1ccccc1Cl` (single isomer, unassigned) [Example 18], at human V2 receptor, the IC50 worked out at 1.35 nM. For the same compound, on human V1a receptor, the IC50 was 0.81 nM and the “ratio IC50 hV2/hV1a” value worked out at 1.7.
With `O=c1n(Cc2nc(N3CCS(=O)(=O)CC3)n(CCC(F)(F)F)n2)nc(-c2ccc(Cl)cc2)n1C[C@H](O)C(F)(F)F` [Example 100, 5-(4-Chlorophenyl)-2-{[5-(1,1-dioxidothiomorpholin-4-yl)-1-(3,3,3-trifluoropropyl)-1H-1,2,4-triazol-3-yl]methyl}-4-[(2S)-3,3,3-trifluoro-2-hydroxypropyl]-2,4-dihydro-3H-1,2,4-triazol-3-one], the IC50 on human V2 receptor stood at 3800 nM. For the same compound, at human V1a receptor, the concentration for half-maximal inhibition (IC50) was 330 nM and the “ratio IC50 hV2/hV1a” value came to 11.5.
On to `O=C1CC[C@H](CNc2nc(Cn3nc(-c4ccc(Cl)cc4)n(C[C@H](O)C(F)(F)F)c3=O)nn2CCC(F)(F)F)N1` [Example 101, 5-(4-Chlorophenyl)-2-{[5-({[(2R)-5-oxopyrrolidin-2-yl]methyl}amino)-1-(3,3,3-trifluoropropyl)-1H-1,2,4-triazol-3-yl]methyl}-4-[(2S)-3,3,3-trifluoro-2-hydroxypropyl]-2,4-dihydro-3H-1,2,4-triazol-3-one], for which the IC50 at human V2 receptor is 510 nM; on human V1a receptor it was 29.5 nM. For the same compound, the “ratio IC50 hV2/hV1a” value at human V1a receptor came to 17.3.
The corresponding values for `CC1(C)CN(c2nc(Cn3nc(-c4ccc(Cl)cc4)n(C[C@H](O)C(F)(F)F)c3=O)nn2-c2ncccc2Cl)CCN1` [Example 122, 5-(4-Chlorophenyl)-2-{[1-(3-chloropyridin-2-yl)-5-(3,3-dimethylpiperazin-1-yl)-1H-1,2,4-triazol-3-yl]methyl}-4-[(2S)-3,3,3-trifluoro-2-hydroxypropyl]-2,4-dihydro-3H-1,2,4-triazol-3-one] are 1550 nM, 0.97 nM and 1606.2.
